≈ marks a conversion by molar mass, not a printed value.
Columns and labels:
[1] = test system: human colon cancer cell line HCT116 cells; assay: Cell proliferation inhibitory activity, HCT116; format: cell-based; conditions: Homo sapiens, HCT-116, read-out: 50% proliferation inhibitory concentration (IC50 value) HCT116; HCT116, 72 hours, WST-8
Procedure: (§1) The compounds according to the present invention were measured for cancer cell proliferation inhibitory activity and human umbilical vein endothelial cell (HUVEC) proliferation inhibitory activity.
(§2) Test compounds were serially diluted with dimethyl sulfoxide and then diluted 50 times with Ca^2+- and Mg^2+-free phosphate-buffered saline, and 20 μL of each of the resulting solution was dispensed into a 96-well plate. […] Each cell suspension contains approximately 3000 cells/180 μL. These cell suspensions were dispensed to the plate containing the test compounds at 180 μL/well and incubated in a 5% carbon dioxide gas incubator at 37° C. for 72 hours. 20 μL of WST-8 (HCT116, Dojin) or WST-1 (HUVEC, Roche Diagnostics) was added to each well, and absorbance at 450 nm (reference wavelength: 650 nm) was measured.

[2] = test system: human umbilical vein endothelial cells (HUVEC), VEGF-dependent proliferation; assay: VEGF-dependent HUVEC proliferation inhibition assay; format: cell-based; conditions: read-out: 50% proliferation inhibitory concentration (IC50 value) HUVEC (VEGF-dependent), 20 ng/mL of VEGF, 72 hours, WST-1
Procedure: as §1, §2

[3] = test system: human umbilical vein endothelial cells (HUVEC), VEGF-independent proliferation; assay: VEGF-independent HUVEC proliferation inhibition assay; format: cell-based; conditions: read-out: 50% proliferation inhibitory concentration (IC50 value) HUVEC (VEGF-independent), vascular endothelial cell growth-promoting agent and heparin, 72 hours, WST-1
Procedure: as §1, §2

[4] = test system: tube formation of human-derived vascular endothelial cells (HUVEC); assay: Tube formation inhibition test (angiogenesis assay kit, KURABO); format: cell-based; conditions: 264 h, final concentration 6.4 nM, 11 days, read-out: Tube formation inhibition ratio (%)
Procedure: The formed tubes were stained with a tube staining kit CD31 (KURABO). The stain image of each well was taken under a microscope, stored in an image file, and measured for the tube formation area using angiogenesis quantitative analysis software of KURABO. The inhibition ratio % of each test compound added to the well was calculated, provided that the ratio of the reference was 100%.

[5] = target: T1, FLT3 intracellular domain protein (Homo sapiens, UniProt P36888); assay: Flt3 enzyme inhibition test (HTRF); format: biochemical; conditions: phosphorylation of biotinylated peptide
T1 sequence (P36888 564-993 limits assumed): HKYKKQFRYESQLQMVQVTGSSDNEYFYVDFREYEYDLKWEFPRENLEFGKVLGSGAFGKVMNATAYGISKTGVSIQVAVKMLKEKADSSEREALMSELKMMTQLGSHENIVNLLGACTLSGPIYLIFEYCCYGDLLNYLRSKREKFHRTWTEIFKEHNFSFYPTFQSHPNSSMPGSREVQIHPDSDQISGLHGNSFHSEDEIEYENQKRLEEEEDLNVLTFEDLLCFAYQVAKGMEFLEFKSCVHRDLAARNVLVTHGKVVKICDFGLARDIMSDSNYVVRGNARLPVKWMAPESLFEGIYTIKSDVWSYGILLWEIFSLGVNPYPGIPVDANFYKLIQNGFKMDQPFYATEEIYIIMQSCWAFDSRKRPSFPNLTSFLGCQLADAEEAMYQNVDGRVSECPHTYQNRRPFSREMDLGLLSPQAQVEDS
Procedure: The FLT3 inhibitory activity was measured by the activity of FLT3 intracellular domain protein inhibiting for phosphorylation of a biotinylated peptide ([…]).

[6] = test system: human colon cancer cell line HCT116 cells; assay: Antitumor test, HCT116 transplanted subcutaneously in nude mice; format: in vivo, female Balb/c nude mouse; conditions: once a day for 12 days; for Tumor growth inhibition ratio (%): last administration day; for Decrease ratio in body weight (%): maximum decrease
Procedure: A cell suspension of human colon cancer cell line HCT116 cells was prepared using Hanks's solution, and 5.0×10^6 cells thereof were transplanted subcutaneously into the flank of each female Balb/c nude mouse. Oral administration of the test compound (once a day for 12 days) was started when the transplanted tumor volume reached 200 to 250 mm^3. The tumor volume was calculated by the expression: 0.5×(minor axis)^2×(major axis). The tumor growth inhibition ratio of tumor growth of the test compound to tumor growth of the reference group was determined.

[7] = Solubility in fasted state simulated intestinal fluid; format: physicochemical; conditions: pH 6.5, fassif, kinetic from dmso stock, fasted state simulated intestinal fluid (pH6.5), 37° C.
Procedure: 2 μL of each dimethyl sulfoxide solutions containing test compounds were dispensed into wells of a 96-well plate, and 200 μL of fasted state simulated intestinal fluid (pH6.5) was added to each well. The plate was shaken at 37° C. for 20 hours. The solution was filtered through a membrane filter, and 101 μL of the filtrate was transferred to a UV plate, followed by addition of 100 μL of a solution mixture of ethanol:water=2:1 thereto. Separately, as a standard, 101 μL of a solution prepared by 2 μL of a dimethyl sulfoxide solution, 4 μL of dimethyl sulfoxide, 400 μL of ethanol, and 200 μL of water was transferred to a UV plate, and 100 μL of fasted state simulated intestinal fluid (pH6.5) was added thereto. The solubility was calculated by the following expression: Solubility=[(absorbance of test solution)−blank]/[(absorbance of standard solution)−blank]×165 μM (165 μM is the concentration of the standard solution) Composition of the fasted state simulated intestinal fluid (pH6.5)
The composition was prepared in compliance with the description in E. Galia, et al., Pharm. Res. 1998, 698.
Taurocholic acid (161 mg), L-α-phosphatidylcholine (59 mg), potassium dihydrogen phosphate (0.39 g), and potassium chloride (0.77 g) were added to about 90 mL of water. The resulting solution was adjusted to a pH of 6.5 with a sodium hydroxide aqueous solution and then diluted to a volume of 100 mL with water. The solution was filtered through a membrane filter.

Raf-1 = Raf-1 (Homo sapiens, UniProt P04049); assay: Raf-1 enzyme inhibition assay (MEK-1 phosphorylation, HTRF); format: biochemical; conditions: phosphorylation of His6-MEK-1
Procedure: (§3) The compounds according to the present invention were measured for Raf-1 and KDR enzyme inhibitory activities.
(§4) The Raf-1 inhibitory activity was measured by the activity of Raf-1 protein for inhibiting phosphorylation of MEK-1 protein having six histidine residues (His6) fused to the N-terminus thereof. […] The KDR inhibitory activity was measured by the activity of KDR intracellular domain protein for inhibiting phosphorylation of a biotinylated peptide ([…]).

[8] = target: KDR intracellular domain protein (Homo sapiens, UniProt P35968); assay: KDR enzyme inhibition assay (biotinylated peptide phosphorylation, HTRF); format: biochemical; conditions: phosphorylation of biotinylated peptide
Procedure: as §3, §4

[9] = test system: choroidal neovascularization; assay: Laser coagulation-induced murine choroidal neovascularization model; format: in vivo, C57BL6J mice; conditions: for Average FA score: once a day for three days
Procedure: Laser coagulation was performed on two- to three-month-old C57BL6J mice (ten mice per group) by using a 408 nm semiconductor laser (DC-3000, Nidek). Both eyes were each irradiated at three positions with a spot size of 170 μm, an exposure time of 0.02 sec, and an output of 200 mW. The drug was orally administered once a day for three days beginning on the day of the laser coagulation. On the next day of the last administration, the mice were intravenously injected with 7 mg/kg of fluorescein. Five minutes after the injection, three fluorescent fundus images of each eye were taken (TRC-501X, Topcon) and stored in a CCD camera having 640×480 pixels as an image file. The total pixel brightness (0 to 1) in regions where fluorescein leakage was detected was used as an index (FA score) of choroidal neovascularization activity. The FA score was calculated by defining reference values such that the pixel brightness in a capillary region of a non-coagulated site is 0 and the pixel brightness on a main branch of the retinal blood vessel is 1.

[10] = Pharmacokinetics test, oral administration; format: in vivo; conditions: female, Balb/c nude, mouse, 100 mg/kg, plasma
Procedure: The compound according to the present invention and known Compound A were measured for pharmacokinetics. Each of the test compounds was orally administered to each female Balb/c nude mouse at a dose of 100 mg/kg, and concentrations of the compound in plasma 0.5, 2, 7, and 24 hours after the administration were quantitatively measured by LC-MS-MS.

Sequence of KDR intracellular domain protein (P35968 786-1356 limits assumed): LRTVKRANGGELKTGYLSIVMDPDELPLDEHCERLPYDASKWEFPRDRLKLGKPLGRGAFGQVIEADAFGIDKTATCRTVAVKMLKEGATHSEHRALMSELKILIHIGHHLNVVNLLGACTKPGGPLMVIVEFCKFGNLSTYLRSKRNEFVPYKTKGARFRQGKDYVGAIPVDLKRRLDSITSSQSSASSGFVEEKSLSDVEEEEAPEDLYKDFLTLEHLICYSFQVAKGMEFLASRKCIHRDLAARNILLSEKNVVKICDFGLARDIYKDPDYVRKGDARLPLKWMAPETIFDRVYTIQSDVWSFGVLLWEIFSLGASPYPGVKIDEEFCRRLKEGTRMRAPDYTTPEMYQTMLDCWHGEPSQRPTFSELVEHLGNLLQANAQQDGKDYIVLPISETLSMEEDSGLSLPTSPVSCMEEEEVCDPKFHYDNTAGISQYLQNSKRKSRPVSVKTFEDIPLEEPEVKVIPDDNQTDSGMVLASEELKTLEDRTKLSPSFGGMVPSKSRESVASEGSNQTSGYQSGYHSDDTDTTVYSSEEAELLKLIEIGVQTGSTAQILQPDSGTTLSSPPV
Sequence of Raf-1 (P04049 whole entry): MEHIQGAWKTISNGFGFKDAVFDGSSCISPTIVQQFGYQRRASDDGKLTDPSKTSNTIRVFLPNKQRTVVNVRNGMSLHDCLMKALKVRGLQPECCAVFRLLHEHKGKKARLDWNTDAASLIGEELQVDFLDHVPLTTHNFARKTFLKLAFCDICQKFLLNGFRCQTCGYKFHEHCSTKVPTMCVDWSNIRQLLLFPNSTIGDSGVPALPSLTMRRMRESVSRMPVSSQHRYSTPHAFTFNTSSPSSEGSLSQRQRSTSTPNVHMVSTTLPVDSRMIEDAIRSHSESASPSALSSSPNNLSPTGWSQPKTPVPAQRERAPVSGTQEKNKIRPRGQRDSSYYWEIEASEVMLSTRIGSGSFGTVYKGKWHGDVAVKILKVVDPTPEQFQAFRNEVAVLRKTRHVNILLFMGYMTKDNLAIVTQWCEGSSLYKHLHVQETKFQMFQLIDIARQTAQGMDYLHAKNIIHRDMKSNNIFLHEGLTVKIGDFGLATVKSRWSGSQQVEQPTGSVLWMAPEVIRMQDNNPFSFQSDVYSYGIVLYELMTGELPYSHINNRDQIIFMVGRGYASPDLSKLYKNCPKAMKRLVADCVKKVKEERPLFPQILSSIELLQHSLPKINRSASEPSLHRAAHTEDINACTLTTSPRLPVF

Row | IC50 [1] | IC50 [5] | solubility at 20 h [7] | Structure (SMILES) | IC50 [2] | IC50 [3] | inhibition at 0.0064 µM [4] | also measured
1 | 2100 nM | 3.2 nM | – | COCCOc1ccc(NC(=O)Nc2ccc(Oc3ccnc4[nH]ccc34)cc2)cc1C(F)(F)F [Compound 1, 1-[4-(2-methoxyethoxy)-3-(trifluoromethyl)phenyl]-3-[4-(1H-pyrrolo[2,3-b]pyridin-4-yloxy)phenyl]urea] | 3.7 nM | 2600 nM | 98% | –
2 | 1600 nM | 9.7 nM | 14 µg/mL (≈ 29.6 µM) | O=C(Nc1ccc(Oc2ccnc3[nH]ccc23)cc1)Nc1ccc(CCCF)c(C(F)(F)F)c1 [Compound 11, 1-[4-(3-Fluoropropyl)-3-(trifluoromethyl)phenyl]-3-[4-(1H-pyrrolo[2,3-b]pyridin-4-yloxy)phenyl]urea] | 5.8 nM | 650 nM | 82% | Tumor growth inhibition ratio (%) ([6]; 100 mg/kg oral): 89%; Decrease ratio in body weight (%) ([6]; 100 mg/kg oral): 7.8%
3 | 2400 nM | 18 nM | 16 µg/mL (≈ 33.8 µM) | O=C(Nc1ccc(Oc2ccnc3[nH]ncc23)cc1)Nc1ccc(CCCF)c(C(F)(F)F)c1 [Compound 19, 1-[4-(3-Fluoro-propyl)-3-(trifluoromethyl)phenyl]-3-[4-(1H-pyrazolo[3,4-b]pyridin-4-yloxy)phenyl]urea] | 1.8 nM | 300 nM | 98% | Tumor growth inhibition ratio (%) ([6]; 100 mg/kg oral): 89%; Decrease ratio in body weight (%) ([6]; 100 mg/kg oral): 4.9%
4 | 3200 nM | 6.9 nM | – | O=C(Nc1ccc(Oc2ccnc3[nH]ccc23)cc1)Nc1ccc(OC2CCOCC2)c(C(F)(F)F)c1 [Compound 7, 1-[4-(1H-Pyrrolo[2,3-b]pyridin-4-yloxy)phenyl]-3-[4-(tetrahydropyran-4-yloxy)-3-(trifluoromethyl)phenyl]urea] | 3.9 nM | 860 nM | 99% | Tumor growth inhibition ratio (%) ([6]; 200 mg/kg oral): 97%; Decrease ratio in body weight (%) ([6]; 200 mg/kg oral): 3.6%
5 | 1300 nM | 14 nM | 16 µg/mL (≈ 34.9 µM) | O=C(Nc1ccc(Oc2ccnc3[nH]ccc23)cc1)Nc1cc(CCF)cc(C(F)(F)F)c1 [Compound 22, 1-[3-(2-Fluoroethyl)-5-(trifluoromethyl)phenyl]-3-[4-(1H-pyrrolo[2,3-b]pyridin-4-yloxy)phenyl]urea] | 5.4 nM | 630 nM | 96% | IC50 (Raf-1): 23 nM; IC50 [8]: 3.6 nM
6 | 2300 nM | 11 nM | – | O=C(Nc1ccc(Oc2ccnc3[nH]ccc23)cc1)Nc1ccc(OCCF)c(C(F)(F)F)c1 [Compound 15, 1-[4-(2-Fluoroethoxy)-3-(trifluoromethyl)phenyl]-3-[4-(1H-pyrrolo[2,3-b]pyridin-4-yloxy)phenyl]urea] | 4 nM | 1200 nM | 100% | –
7 | – | – | – | O=C(Nc1ccc(Oc2ccnc3[nH]ccc23)cc1)Nc1ccc(Oc2ccc(F)cc2)c(C(F)(F)F)c1 [Compound 58, 1-[4-(4-Fluorophenoxy)-3-(trifluoromethyl)phenyl]-3-[4-(1H-pyrrolo[2,3-b]pyridin-4-yloxy)phenyl]urea] | – | – | – | inhibition of the angiogenesis (in words) ([9]; 50 mg/kg): significantly inhibited; Average FA score ([9]; 50 mg/kg oral): 7.127; Average FA score ([9]; 100 mg/kg oral): 6.664
8 | – | – | 6 µg/mL (≈ 12.9 µM) | CNC(=O)c1cc(Oc2ccc(NC(=O)Nc3ccc(Cl)c(C(F)(F)F)c3)cc2)ccn1 [Compound A, BAY 43-9006, reference compound] | – | – | – | AUC [10]: 189 µg·h/mL; Cmax [10]: 19200 ng/mL; inhibition of the angiogenesis (in words) ([9]; 100 mg/kg): did not significantly inhibit; Average FA score ([9]; 100 mg/kg oral): 7.258
9 | 1300 nM | – | – | O=C(Nc1ccc(Oc2ccnc3[nH]ccc23)cc1)Nc1ccc(CCF)c(C(F)(F)F)c1 [Compound 21, 1-[4-(2-Fluoroethyl)-3-(trifluoromethyl)phenyl]-3-[4-(1H-pyrrolo[2,3-b]pyridin-4-yloxy)phenyl]urea] | 4.4 nM | 860 nM | 100% | –
10 | – | – | – | COCCOc1ccc(NC(=O)Nc2ccc(Oc3ccnc4[nH]ncc34)cc2)cc1C(F)(F)F [Compound 2, 1-[4-(2-Methoxyethoxy)-3-(trifluoromethyl)phenyl]-3-[4-(1H-pyrazolo[3,4-b]pyridin-4-yloxy)phenyl]urea] | – | – | 82% | –
